Data from patent publication US20220048945A1, “PEPTIDE INHIBITING ACTIVITY OF ARYL HYDROCARBON RECEPTOR AND COSMETIC COMPOSITION USING SAME” (SUPADELIXIR INC., priority 2019, published 2022).

What was measured:
TNF-α = experiment: ELISA, TNF-α production caused by fine dust; assay type: cell-based, human; details: HaCaT cells, fine dust 10 ug/ml plus peptide 20 uM, 24 hours; fine dust only = 100, no treatment = 0
Description: (§1) 2. Specifically, the cultured HaCaT cells were treated with 10 ug/ml of fine dust and 20 uM of the peptide produced in Example 1 (AhR Pep1 to AhR Pep4) respectively, and incubated for 24 hours. Then, IL-6 and TNF-α contents were measured using a […] enzyme-linked immunosorbent assay (ELISA) kit (R&D Systems Inc, Minneapolis, Minn., USA).

IL-6 = experiment: ELISA, IL-6 production caused by fine dust; assay type: cell-based, human; details: HaCaT cells, fine dust 10 ug/ml plus peptide 20 uM, 24 hours; fine dust only = 100, no treatment = 0
Description: as §1

Row | Substance | TNF-α production (%) (TNF-α) | IL-6 production (%) (IL-6)
1 | Asn-Thr-Glu (NTE; Peptide 4) [AhR Pep 4] | 82 | 74
2 | Asn-Thr-Glu-Leu (NTEL; Peptide 3) [AhR Pep 3] | 89 | 83
3 | Asp-Arg-Leu (DRL; Peptide 2) [AhR Pep 2] | 93 | 87
4 | Asp-Arg-Leu-Asn (DRLN; Peptide 1) [AhR Pep 1] | 79 | 76
